Measurements reported in patent US8053457B2, “3-imidazolyl-indoles for the treatment of proliferative diseases” (Novartis AG, priority 2007, dated 2011).

How the values were obtained:
[1] = molecular target: T1, Hdm2 protein (amino acids 2-185) (Homo sapiens, UniProt Q00987); test: Fluorescence polarisation assay, inhibition of p53-Hdm2 interaction; assay type: binding; conditions: Hdm2 3 nM, Cy5-labelled p53-derived peptide 1 nM
T1 construct: Hdm2 protein (amino acids 2-185)
Protocol: Fluorescence Polarisation Assay
The inhibition of p53-Hdm2 interaction is measured by fluorescence polarization. Fluorescence polarization measures the rotational movement of molecules in a homogeneous suspension. For this assay, Hdm2 protein (amino acids 2-185) is combined with a Cy5-labelled p53-derived peptide optimised for Hdm2 binding (J. Med. Chem. 2000, 43, 3205-3208). Upon excitation of the Cy5 fluorescent ligand with linearly polarized light, the peptide rotates faster and emits light which is perpendicularly polarized. If the peptide is bound by Hdm2, rotation will slow down and the perpendicular component will decrease. Disruption of the formation of the peptide-Hdm2 complex due to an inhibitor molecule binding to the p53 binding site of Hdm2 results in faster rotation of the peptide. The ratiometric polarization assay readout is calculated from the parallel and perpendicular components of the fluorescence light with respect to the polarization of the excitation light.
The test is performed by combining 7 μl compounds diluted in dimethyl sulfoxide (DMSO) (10% final concentration) with 31.5 μl […] (final concentration 3 nM) in reaction buffer (PBS, 0.1% CHAPS, 1 mM DTT (dithiothreitol)). The solution is allowed to preincubate for 5 minutes at room temperature, followed by addition of 31.5 μl peptide in reaction buffer (final concentration 1 nM), and a further 5 minutes of incubation. A final volume of 20 μl (in triplicate) is distributed into small volume black 384-well plates (Greiner Bio-One GmbH, Frickenhausen, Germany). For measurement of samples, an Analyst AD multimode microplate reader (Molecular Devices Corporation, Sunnyvale, Calif., USA) with the following settings is used: Dichroic mirror 650 nm, Excitation 630 nm, Emission 695 nm. Raw values are expressed as percent of DMSO control, where background (reaction buffer with peptide but no Hdm2) is subtracted first from raw values. IC50 values are calculated by curve fitting using XLfit. If not specified, reagents were purchased from Sigma Chemical Co.

[2] = molecular target: T2, MDM4 protein (amino acids 2-185) (Homo sapiens, UniProt O15151); test: Time resolved fluorescence energy transfer (TR-FRET) assay, inhibition of p53-Hdm4 interaction; assay type: binding; conditions: MDM4-Bio 10 nM, Cy5-p53 peptide 20 nM
T2 construct: MDM4 protein (amino acids 2-185), tagged with a C-terminal Biotin moiety
T2 sequence (O15151 2-185): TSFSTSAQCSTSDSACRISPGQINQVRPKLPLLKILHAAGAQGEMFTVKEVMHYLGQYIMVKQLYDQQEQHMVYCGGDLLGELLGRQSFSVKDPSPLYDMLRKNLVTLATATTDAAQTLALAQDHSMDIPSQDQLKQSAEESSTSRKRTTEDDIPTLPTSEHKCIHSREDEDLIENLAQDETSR
Protocol: Time Resolved Fluorescence Energy Transfer (TR-FRET) Assay
The inhibition of p53-Hdm4 interaction is measured by time resolved fluorescence energy transfer (TR-FRET). Fluorescence energy transfer (or Foerster resonance energy transfer) describes an energy transfer between donor and acceptor fluorescent molecules. For this assay, MDM4 protein (amino acids 2-185), tagged with a C-terminal Biotin moiety, is used in combination with a Europium labeled streptavidin (Perkin Elmer, Inc., Waltham, Mass., USA) serving as the donor fluorophore. The p53 derived, Cy5 labeled peptide Cy5-TFSDLWKLL (p53 aa18-26) is the energy acceptor. Upon excitation of the donor molecule at 340 nm, binding interaction between MDM4 and the p53 peptide induces energy transfer and enhanced response at the acceptor emission wavelength at 665 nm. Disruption of the formation of the p53-MDM4 complex due to an inhibitor molecule binding to the p53 binding site of MDM4 results in increased donor emission at 615 nm. The ratiometric FRET assay readout is calculated from the raw data of the two distinct fluorescence signals measured in time resolved mode (countrate 665 nm/countrate 615 nm×1000).
The test is performed in white 1536w microtiterplates (Greiner Bio-One GmbH, Frickenhausen, Germany) in a total volume of 3.1 μl by combining 100 nl of compounds diluted in 90% DMSO/10% H2O (3.2% final DMSO concentration) with 2 μl Europium labeled streptavidin (final concentration 2.5 nM) in reaction buffer (PBS, 125 mM NaCl, 0.001% Novexin (consists of carbohydrate polymers (Novexin polymers), designed to increase the solubility and stability of proteins; Novexin Ltd., Cambridgeshire, United Kingdom), Gelatin 0.01%, 0.2% Pluronic (block copolymer fromethylenoxide and propyleneoxide, BASF, Ludwigshafen, Germany), 1 mM DTT), followed by the addition of 0.5 μl MDM4-Bio diluted in assay buffer (final concentration 10 nM). Allow the solution to pre-incubate for 15 minutes at room temperature, followed by addition of 0.5 μl Cy5-p53 peptide in assay buffer (final concentration 20 nM). Incubate at room temperature for 10 minutes prior to reading the plate. For measurement of samples, an Analyst GT multimode microplate reader (Molecular Devices) with the following settings is used: Dichroic mirror 380 nm, Excitation 330 nm, Emission Donor 615 nm and Emission Acceptor 665 nm. IC50 values are calculated by curve fitting using XLfit. If not specified, reagents are purchased from Sigma Chemical Co, St. Louis, Mo., USA.

T1 sequence (Q00987 2-185): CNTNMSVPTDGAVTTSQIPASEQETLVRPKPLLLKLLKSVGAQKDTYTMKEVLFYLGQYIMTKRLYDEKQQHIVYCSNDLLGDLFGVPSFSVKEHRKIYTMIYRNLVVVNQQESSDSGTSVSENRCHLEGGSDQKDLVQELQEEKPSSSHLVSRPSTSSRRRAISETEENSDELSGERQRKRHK

Row | SMILES | IC50 [1] | IC50 [2]
1 | Fc1cc2c(-c3c(-c4ccccc4)ncn3Cc3ccc4cc[nH]c4c3)c[nH]c2cc1Cl [Example 135] | 7.2 µM | 68.3 µM
2 | Oc1cccc(-c2ncn(Cc3ccc(Cl)cc3)c2-c2c[nH]c3cc(Cl)c(F)cc23)c1 [Example 142, 3-[1-(4-Chloro-benzyl)-5-(6-chloro-5-fluoro-1H-indol-3-yl)-1H-imidazol-4-yl]-phenol] | 0.64 µM | 43.4 µM
3 | O=C(CN1CCN(CCNC(=O)c2[nH]c3cc(Cl)ccc3c2-c2c(-c3ccccc3)ncn2Cc2ccc(Cl)cc2)CC1)Nc1cccnc1 [Example 271] | 0.3 µM | 54.9 µM

Compounds with a lower IC50 [1], results first:

Row | IC50 [1] | IC50 [2] | SMILES
4 | 0.11 µM | 55.3 µM | OCc1cc(Cl)ccc1Cn1cnc(-c2ccccc2)c1-c1c[nH]c2cc(Cl)c(F)cc12 [Example 148]
5 | 0.19 µM | 63.7 µM | O=C(NCCN1CCN(Cc2ccccn2)C1=O)c1[nH]c2cc(Cl)ccc2c1-c1c(-c2ccccc2)ncn1Cc1ccc(Cl)cc1 [Example 328, 6-Chloro-3-[3-(4-chloro-benzyl)-5-phenyl-3H-imidazol-4-yl]-1H-indole-2-carboxylic acid [2-(2-oxo-3-pyridin-2-ylmethyl-imidazolidin-1-yl)-ethyl]-amide]
